Assay results: ChEMBL document CHEMBL4138146, “A Schmidt rearrangement-mediated synthesis of novel tetrahydro-benzo[1,4]diazepin-5-ones as potential anticancer and antiprotozoal agents” (Eur J Med Chem, 2017)
≈ marks a conversion by molar mass, not a printed value.

Assays:
SR = assay: Growth inhibition of human SR cells assessed as cell growth at 10 uM incubated for 48 hrs by sulforhodamine B assay relative to control; format: functional; conditions: read-out: Activity
MDA-MB-231 = assay: Growth inhibition of human MDA-MB-231 cells assessed as cell growth at 10 uM incubated for 48 hrs by sulforhodamine B assay relative to control; format: functional; conditions: MDA-MB-231, 48 h, read-out: Activity
T47D = assay: Growth inhibition of human T47D cells assessed as cell growth at 10 uM incubated for 48 hrs by sulforhodamine B assay relative to control; format: functional; conditions: read-out: Activity
MDA-MB-435 = assay: Growth inhibition of human MDA-MB-435 cells assessed as cell growth at 10 uM incubated for 48 hrs by sulforhodamine B assay relative to control; format: functional; conditions: MDA-MB-435, 48 h, read-out: Activity
NCI-H23 = assay: Growth inhibition of human NCI-H23 cells assessed as cell growth at 10 uM incubated for 48 hrs by sulforhodamine B assay relative to control; format: functional; conditions: NCI-H23, 48 h, read-out: Activity
K562 = assay: Growth inhibition of human K562 cells assessed as cell growth at 10 uM incubated for 48 hrs by sulforhodamine B assay relative to control; format: functional; conditions: K562, 48 h, read-out: Activity
SF-268 = assay: Growth inhibition of human SF268 cells assessed as cell growth at 10 uM incubated for 48 hrs by sulforhodamine B assay relative to control; format: functional; conditions: SF-268, 48 h, read-out: Activity
SF-295 = assay: Growth inhibition of human SF295 cells assessed as cell growth at 10 uM incubated for 48 hrs by sulforhodamine B assay relative to control; format: functional; conditions: SF-295, 48 h, read-out: Activity
MCF7 = assay: Growth inhibition of human MCF7 cells assessed as cell growth at 10 uM incubated for 48 hrs by sulforhodamine B assay relative to control; format: functional; conditions: MCF7, 48 h, read-out: Activity
786-0 = assay: Growth inhibition of human 786-0 cells assessed as cell growth at 10 uM incubated for 48 hrs by sulforhodamine B assay relative to control; format: functional; conditions: 786-0, 48 h, read-out: Activity
HCT-116 = assay: Growth inhibition of human HCT116 cells assessed as cell growth at 10 uM incubated for 48 hrs by sulforhodamine B assay relative to control; format: functional; conditions: HCT-116, 48 h, read-out: Activity
MOLT-4 = assay: Growth inhibition of human MOLT4 cells assessed as cell growth at 10 uM incubated for 48 hrs by sulforhodamine B assay relative to control; format: functional; conditions: MOLT-4, 48 h, read-out: Activity
U-251 = assay: Growth inhibition of human U251 cells assessed as cell growth at 10 uM incubated for 48 hrs by sulforhodamine B assay relative to control; format: functional; conditions: U-251, 48 h, read-out: Activity
HL-60(TB) = assay: Growth inhibition of human HL-60(TB) cells assessed as cell growth at 10 uM incubated for 48 hrs by sulforhodamine B assay relative to control; format: functional; conditions: HL-60, 48 h, read-out: Activity
HCC 2998 = assay: Growth inhibition of human HCC2998 cells assessed as cell growth at 10 uM incubated for 48 hrs by sulforhodamine B assay relative to control; format: functional; conditions: HCC 2998, 48 h, read-out: Activity
SK-MEL-5 = assay: Growth inhibition of human SK-MEL-5 cells assessed as cell growth at 10 uM incubated for 48 hrs by sulforhodamine B assay relative to control; format: functional; conditions: SK-MEL-5, 48 h, read-out: Activity
OVCAR-3 = assay: Growth inhibition of human OVCAR3 cells assessed as cell growth at 10 uM incubated for 48 hrs by sulforhodamine B assay relative to control; format: functional; conditions: OVCAR-3, 48 h, read-out: Activity
EKVX = assay: Growth inhibition of human EKVX cells assessed as cell growth at 10 uM incubated for 48 hrs by sulforhodamine B assay relative to control; format: functional; conditions: read-out: Activity
Hs-578T = assay: Growth inhibition of human Hs 578T cells assessed as cell growth at 10 uM incubated for 48 hrs by sulforhodamine B assay relative to control; format: functional; conditions: read-out: Activity
M14 = assay: Growth inhibition of human M14 cells assessed as cell growth at 10 uM incubated for 48 hrs by sulforhodamine B assay relative to control; format: functional; conditions: M14, 48 h, read-out: Activity
SW-620 = assay: Growth inhibition of human SW620 cells assessed as cell growth at 10 uM incubated for 48 hrs by sulforhodamine B assay relative to control; format: functional; conditions: SW-620, 48 h, read-out: Activity
UACC-62 = assay: Growth inhibition of human UACC62 cells assessed as cell growth at 10 uM incubated for 48 hrs by sulforhodamine B assay relative to control; format: functional; conditions: UACC-62, 48 h, read-out: Activity
HCT-15 = assay: Growth inhibition of human HCT15 cells assessed as cell growth at 10 uM incubated for 48 hrs by sulforhodamine B assay relative to control; format: functional; conditions: HCT-15, 48 h, read-out: Activity
KM12 = assay: Growth inhibition of human KM12 cells assessed as cell growth at 10 uM incubated for 48 hrs by sulforhodamine B assay relative to control; format: functional; conditions: KM12, 48 h, read-out: Activity
SNB-19 = assay: Growth inhibition of human SNB19 cells assessed as cell growth at 10 uM incubated for 48 hrs by sulforhodamine B assay relative to control; format: functional; conditions: SNB-19, 48 h, read-out: Activity
Plasmodium falciparum = assay: Antimalarial activity against chloroquine-sensitive Plasmodium falciparum 3D7 incubated for 48 hrs by malstat reagent based LDH release assay; format: functional, organism-based; conditions: 3D7, 48 h
U-937 = assay: Cytotoxicity against human U937 cells after 72 hrs by MTT assay; format: functional; conditions: U-937, 72 h, read-out: LC50 (the source's name)
Leishmania panamensis = assay: Antileishmanial activity against EpiR/GFP fused Leishmania panamensis MHOM/CO/87/UA140 intracellular amastigotes infected in human […] cells after 72 hrs by flow cytometric method; format: functional, organism-based; conditions: MHOM/CO/87/UA140, 72 h

O=C1CC(c2cc3ccccc3[nH]c2=O)Nc2ccccc21 (stereo not given)
growth at 10 µM (SR): 95.4%
growth at 10 µM (MDA-MB-231): 83.9%
growth at 10 µM (T47D): 94.3%
growth at 10 µM (MDA-MB-435): 108%
growth at 10 µM (NCI-H23): 97.8%
growth at 10 µM (K562): 102%
growth at 10 µM (SF-268): 101%
growth at 10 µM (SF-295): 98.4%
growth at 10 µM (MCF7): 102%
growth at 10 µM (786-0): 93.9%
growth at 10 µM (HCT-116): 91.6%
growth at 10 µM (MOLT-4): 102%
growth at 10 µM (U-251): 99.7%
growth at 10 µM (HL-60(TB)): 98%
growth at 10 µM (HCC 2998): 103%
growth at 10 µM (SK-MEL-5): 103%
growth at 10 µM (OVCAR-3): 113%
growth at 10 µM (EKVX): 108%
growth at 10 µM (Hs-578T): 99.7%
growth at 10 µM (M14): 101%
growth at 10 µM (SW-620): 104%
growth at 10 µM (UACC-62): 96.3%
growth at 10 µM (HCT-15): 97.8%
growth at 10 µM (KM12): 105%
growth at 10 µM (SNB-19): 99.4%

O=C1NCC(c2cc3ccc4ccccc4c3[nH]c2=O)Nc2ccccc21 (stereo not given)
growth at 10 µM (SR): 56.4%
growth at 10 µM (MDA-MB-231): 65.3%
growth at 10 µM (T47D): 85.7%
growth at 10 µM (MDA-MB-435): 106%
growth at 10 µM (NCI-H23): 102%
growth at 10 µM (K562): 97.3%
growth at 10 µM (SF-268): 77.8%
growth at 10 µM (SF-295): 100%
growth at 10 µM (MCF7): 33.4%
growth at 10 µM (786-0): 92.8%
growth at 10 µM (HCT-116): 44.1%
growth at 10 µM (MOLT-4): 90.4%
growth at 10 µM (U-251): 102%
growth at 10 µM (HL-60(TB)): 86.7%
growth at 10 µM (HCC 2998): 97.8%
growth at 10 µM (SK-MEL-5): 99.2%
growth at 10 µM (OVCAR-3): 107%
growth at 10 µM (EKVX): 96.4%
growth at 10 µM (Hs-578T): 93.9%
growth at 10 µM (M14): 102%
growth at 10 µM (SW-620): 91.5%
growth at 10 µM (UACC-62): 95.2%
growth at 10 µM (HCT-15): 102%
growth at 10 µM (KM12): 99.1%
growth at 10 µM (SNB-19): 89.2%
EC50 (Plasmodium falciparum): > 20 µg/mL
CC50 (U-937): 8.3 µg/mL (≈ 23.4 µM)
EC50 (Leishmania panamensis): 4.98 µg/mL (≈ 14 µM)

CCCCOc1nc2ccc(OC)cc2cc1C1CNC(=O)c2ccccc2N1 (stereo not given)
growth at 10 µM (MDA-MB-231): 83.6%
growth at 10 µM (T47D): 94.1%
growth at 10 µM (MDA-MB-435): 104%
growth at 10 µM (NCI-H23): 99.2%
growth at 10 µM (SF-268): 99%
growth at 10 µM (786-0): 96.6%
growth at 10 µM (HCT-116): 85.3%
growth at 10 µM (U-251): 106%
growth at 10 µM (HCC 2998): 123%
growth at 10 µM (SK-MEL-5): 86.9%
growth at 10 µM (OVCAR-3): 101%
growth at 10 µM (Hs-578T): 105%
growth at 10 µM (M14): 99%
growth at 10 µM (SW-620): 97.6%
growth at 10 µM (UACC-62): 76.2%
growth at 10 µM (KM12): 96.6%
growth at 10 µM (SNB-19): 105%

CCCCn1c(=O)c(C2CNC(=O)c3ccccc3N2)cc2ccc(Cl)cc21 (stereo not given)
growth at 10 µM (SR): 59.8%
growth at 10 µM (MDA-MB-231): 81.1%
growth at 10 µM (T47D): 93.6%
growth at 10 µM (MDA-MB-435): 103%
growth at 10 µM (NCI-H23): 93.5%
growth at 10 µM (K562): 87.9%
growth at 10 µM (SF-268): 105%
growth at 10 µM (SF-295): 104%
growth at 10 µM (MCF7): 89.1%
growth at 10 µM (786-0): 107%
growth at 10 µM (HCT-116): 73%
growth at 10 µM (MOLT-4): 107%
growth at 10 µM (U-251): 102%
growth at 10 µM (HL-60(TB)): 107%
growth at 10 µM (HCC 2998): 111%
growth at 10 µM (SK-MEL-5): 97.9%
growth at 10 µM (OVCAR-3): 112%
growth at 10 µM (EKVX): 89.8%
growth at 10 µM (Hs-578T): 102%
growth at 10 µM (M14): 92.6%
growth at 10 µM (SW-620): 100%
growth at 10 µM (UACC-62): 80.1%
growth at 10 µM (HCT-15): 98.5%
growth at 10 µM (KM12): 98.5%
growth at 10 µM (SNB-19): 94.7%

CCCCn1c(=O)c(C2CNC(=O)c3ccccc3N2)cc2ccccc21 (stereo not given)
growth at 10 µM (SR): 102%
growth at 10 µM (MDA-MB-231): 77.5%
growth at 10 µM (T47D): 93.7%
growth at 10 µM (MDA-MB-435): 105%
growth at 10 µM (NCI-H23): 95%
growth at 10 µM (K562): 99.3%
growth at 10 µM (SF-268): 98.9%
growth at 10 µM (SF-295): 96.8%
growth at 10 µM (MCF7): 99.6%
growth at 10 µM (786-0): 92.4%
growth at 10 µM (HCT-116): 94.9%
growth at 10 µM (MOLT-4): 46.4%
growth at 10 µM (U-251): 98%
growth at 10 µM (HL-60(TB)): 96.7%
growth at 10 µM (HCC 2998): 108%
growth at 10 µM (SK-MEL-5): 102%
growth at 10 µM (OVCAR-3): 99.8%
growth at 10 µM (EKVX): 103%
growth at 10 µM (Hs-578T): 94.6%
growth at 10 µM (M14): 107%
growth at 10 µM (SW-620): 99.2%
growth at 10 µM (UACC-62): 88.4%
growth at 10 µM (HCT-15): 101%
growth at 10 µM (KM12): 101%
growth at 10 µM (SNB-19): 91%

O=C1CC(c2cc3ccc4ccccc4c3[nH]c2=O)Nc2ccccc21 (stereo not given)
growth at 10 µM (SR): 11.1%
growth at 10 µM (MDA-MB-231): 69.3%
growth at 10 µM (T47D): 93.1%
growth at 10 µM (MDA-MB-435): 109%
growth at 10 µM (NCI-H23): 93.6%
growth at 10 µM (K562): 87.2%
growth at 10 µM (SF-268): 96.8%
growth at 10 µM (SF-295): 105%
growth at 10 µM (MCF7): 76.2%
growth at 10 µM (786-0): 95.6%
growth at 10 µM (HCT-116): 93%
growth at 10 µM (MOLT-4): 89.5%
growth at 10 µM (U-251): 87.6%
growth at 10 µM (HL-60(TB)): 100%
growth at 10 µM (HCC 2998): 108%
growth at 10 µM (SK-MEL-5): 98.9%
growth at 10 µM (OVCAR-3): 115%
growth at 10 µM (EKVX): 93.8%
growth at 10 µM (Hs-578T): 77.3%
growth at 10 µM (M14): 96.4%
growth at 10 µM (SW-620): 96%
growth at 10 µM (UACC-62): 101%
growth at 10 µM (HCT-15): 96.5%
growth at 10 µM (KM12): 94.5%
growth at 10 µM (SNB-19): 92.5%
